Experiments:
SeXPK [1] = target: T1, SeXPK (Synechococcus elongatus, UniProt Q31LF9); assay: cryo-EM structure; format: binding; conditions: 2 mM AMPPNP; allosteric site at dimer interface, two per dimer, no Mg2+ bound; TPP/Mg2+ present
T1 construct: gene Synpcc7942_2080; N-terminal 6His tag, pDC vector, E. coli; dodecamer of six dimers; purified with TPP/Mg2+
T1 sequence (Q31LF9 1-796): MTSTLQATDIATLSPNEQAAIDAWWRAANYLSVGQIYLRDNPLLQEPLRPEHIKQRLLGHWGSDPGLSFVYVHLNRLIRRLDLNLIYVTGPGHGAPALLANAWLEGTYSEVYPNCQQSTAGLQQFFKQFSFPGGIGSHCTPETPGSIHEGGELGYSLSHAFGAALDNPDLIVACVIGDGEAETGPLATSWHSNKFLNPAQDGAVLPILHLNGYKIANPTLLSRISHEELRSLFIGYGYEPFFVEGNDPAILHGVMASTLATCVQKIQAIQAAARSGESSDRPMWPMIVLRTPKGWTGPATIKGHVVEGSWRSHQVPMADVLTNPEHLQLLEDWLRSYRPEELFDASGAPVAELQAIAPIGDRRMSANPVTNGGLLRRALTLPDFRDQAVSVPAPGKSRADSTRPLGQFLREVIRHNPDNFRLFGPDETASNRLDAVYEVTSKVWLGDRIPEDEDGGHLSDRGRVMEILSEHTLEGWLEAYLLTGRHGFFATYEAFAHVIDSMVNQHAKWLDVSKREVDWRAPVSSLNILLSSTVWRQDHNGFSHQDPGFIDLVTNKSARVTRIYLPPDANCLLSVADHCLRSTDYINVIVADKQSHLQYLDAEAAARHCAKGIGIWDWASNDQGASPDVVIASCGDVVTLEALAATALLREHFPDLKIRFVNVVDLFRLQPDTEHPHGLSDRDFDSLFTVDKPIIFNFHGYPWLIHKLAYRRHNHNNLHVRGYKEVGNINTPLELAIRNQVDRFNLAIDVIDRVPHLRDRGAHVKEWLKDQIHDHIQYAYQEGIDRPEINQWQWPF

SeXPK [2] = target: T2, SeXPK (Synechococcus elongatus, UniProt Q31LF9, H706R); assay: acetyl phosphate formation, hydroxamate colorimetric assay; format: biochemical; conditions: 30 mM phosphate, pH 6.4, 1 mM TPP, 1 mM MgCl2; no ATP
T2 construct: gene Synpcc7942_2080; N-terminal 6His tag, pDC vector, E. coli; dodecamer of six dimers; purified with TPP/Mg2+

SeXPK [3] = target: T3, SeXPK (Synechococcus elongatus, UniProt Q31LF9, Y710A); assay: as above; format: biochemical; conditions: 30 mM phosphate, pH 6.4, 1 mM TPP, 1 mM MgCl2; no ATP
T3 construct: gene Synpcc7942_2080; N-terminal 6His tag, pDC vector, E. coli; dodecamer of six dimers; purified with TPP/Mg2+

[4] = target: T4, Methylomonas sp. XPK (MeXPK) (Methylomonas sp. DH-1, UniProt A0A172UD65); assay: as above; format: biochemical; conditions: 30 mM phosphate, pH 6.4, 1 mM TPP, 1 mM MgCl2; no ATP
T4 construct: same plasmid as SeXPK (N-terminal 6His tag), expressed in E. coli and purified
T4 sequence (A0A172UD65 1-788): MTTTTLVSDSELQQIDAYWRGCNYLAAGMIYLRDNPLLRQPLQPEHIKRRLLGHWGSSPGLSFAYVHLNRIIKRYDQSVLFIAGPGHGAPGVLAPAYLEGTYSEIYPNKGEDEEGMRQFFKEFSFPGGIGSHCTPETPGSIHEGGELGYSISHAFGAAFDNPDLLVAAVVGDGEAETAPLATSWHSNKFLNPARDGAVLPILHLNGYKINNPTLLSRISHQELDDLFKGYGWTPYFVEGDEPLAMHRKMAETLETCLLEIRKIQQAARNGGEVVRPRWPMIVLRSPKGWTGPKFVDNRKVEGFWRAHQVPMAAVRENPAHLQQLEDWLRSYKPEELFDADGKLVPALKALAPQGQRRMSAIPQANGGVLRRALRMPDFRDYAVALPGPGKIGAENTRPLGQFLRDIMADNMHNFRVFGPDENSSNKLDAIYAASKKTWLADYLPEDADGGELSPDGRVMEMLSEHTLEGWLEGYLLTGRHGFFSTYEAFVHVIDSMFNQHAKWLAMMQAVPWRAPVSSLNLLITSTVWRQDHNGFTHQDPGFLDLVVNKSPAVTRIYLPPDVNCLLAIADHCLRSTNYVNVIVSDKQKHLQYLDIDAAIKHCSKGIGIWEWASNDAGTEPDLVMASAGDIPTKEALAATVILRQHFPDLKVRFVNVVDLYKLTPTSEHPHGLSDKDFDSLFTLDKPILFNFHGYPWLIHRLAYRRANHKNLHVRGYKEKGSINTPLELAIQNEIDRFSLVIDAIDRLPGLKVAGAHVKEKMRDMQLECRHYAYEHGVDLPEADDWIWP
Excerpt: acetyl phosphate formation, hydroxamate colorimetric assay on Methylomonas sp. XPK (MeXPK) | Methylomonas sp.

SeXPK [5] = target: T5, SeXPK (Synechococcus elongatus, UniProt Q31LF9, H706A); assay: as above; format: biochemical; conditions: 30 mM phosphate, pH 6.4, 1 mM TPP, 1 mM MgCl2; no ATP; most activity lost
T5 construct: gene Synpcc7942_2080; N-terminal 6His tag, pDC vector, E. coli; dodecamer of six dimers; purified with TPP/Mg2+

SeXPK [6] = target: T1, SeXPK; assay: as above; format: biochemical; conditions: F6P varied, 30 mM phosphate, pH 6.4, 1 mM TPP, 1 mM MgCl2; allosteric
[7] = target: T4, Methylomonas sp. XPK (MeXPK); assay: as above; format: biochemical; conditions: F6P varied, 30 mM phosphate, pH 6.4, 1 mM TPP, 1 mM MgCl2; allosteric
Excerpt: acetyl phosphate formation, hydroxamate colorimetric assay on Methylomonas sp.

[8] = target: Bifidobacterium longum phosphoketolase (B. longum XPK) (B. longum); assay: cryo-EM structure; purified B. longum XPK with TPP/Mg2+, free form; D4 symmetry, focused refinement of one dimer
[9] = target: the molecule itself; assay: cryo-EM structure; purified SeXPK ~0.4 mg/ml (2.2 µM of dimer) in 20 mM HEPES-NaOH pH 7.2, 0.1 M NaCl, 0.2 mM TPP, 1 mM MgCl2; free and with 2 mM AMPPNP; D6 symmetry, focused refinement of one dimer

T5 sequence (Q31LF9 whole entry H706A): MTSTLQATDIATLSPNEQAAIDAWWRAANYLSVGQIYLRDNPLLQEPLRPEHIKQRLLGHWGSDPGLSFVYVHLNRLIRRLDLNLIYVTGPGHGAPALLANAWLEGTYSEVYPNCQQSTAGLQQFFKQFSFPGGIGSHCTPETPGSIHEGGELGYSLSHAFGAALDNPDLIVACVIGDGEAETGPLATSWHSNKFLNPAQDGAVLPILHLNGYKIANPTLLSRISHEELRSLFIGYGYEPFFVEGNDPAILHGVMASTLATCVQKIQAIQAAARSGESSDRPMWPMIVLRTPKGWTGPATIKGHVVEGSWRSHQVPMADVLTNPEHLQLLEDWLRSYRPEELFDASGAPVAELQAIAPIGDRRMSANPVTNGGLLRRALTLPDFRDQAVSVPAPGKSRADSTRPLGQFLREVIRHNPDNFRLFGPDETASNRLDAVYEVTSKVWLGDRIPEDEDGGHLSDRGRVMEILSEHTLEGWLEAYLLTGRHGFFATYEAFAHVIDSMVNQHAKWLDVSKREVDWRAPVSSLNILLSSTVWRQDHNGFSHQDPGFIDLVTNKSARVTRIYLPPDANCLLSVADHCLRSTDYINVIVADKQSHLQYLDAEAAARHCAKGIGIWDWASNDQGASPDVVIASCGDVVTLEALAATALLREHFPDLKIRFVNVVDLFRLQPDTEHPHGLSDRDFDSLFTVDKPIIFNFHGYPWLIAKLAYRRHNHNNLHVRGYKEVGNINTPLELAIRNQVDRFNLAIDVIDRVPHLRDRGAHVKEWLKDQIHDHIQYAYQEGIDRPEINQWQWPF
T3 sequence (Q31LF9 whole entry Y710A): as the sequence (Q31LF9 whole entry H706A) above, with A706H, Y710A counted along it
T2 sequence (Q31LF9 whole entry H706R): as the sequence (Q31LF9 whole entry H706A) above, with A706R counted along it

Nc1ncnc2c1ncn2[C@@H]1O[C@H](COP(=O)(O)OP(=O)(O)NP(=O)(O)O)[C@@H](O)[C@H]1O [AMPPNP, phosphoaminophosphonic acid adenylate ester]
cryo-EM structure (SeXPK [1]): the two subunits jointly bind two AMPPNP

O=P(O)(O)OC[C@H]1OC(O)(CO)[C@@H](O)[C@@H]1O (stereo partly drawn) [F6P]
ATP sensitivity of activity (SeXPK [2]): H706R mutant of SeXPK shows only minor effect by ATP | acetyl phosphate formation, hydroxamate colorimetric assay (SeXPK [3]): Y710A mutant of SeXPK lost most activity | Km [4]: Methylomonas sp. XPK (MeXPK) is also inhibited by ATP | acetyl phosphate formation, hydroxamate colorimetric assay (SeXPK [5]): H706A mutant of SeXPK lost most activity

Nc1ncnc2c1ncn2[C@@H]1O[C@H](COP(=O)(O)OP(=O)(O)OP(=O)(O)O)[C@@H](O)[C@H]1O [ATP, adenosine-5′-triphosphate]
inhibition at 0.5, 1 or 2 mM (SeXPK [6]): SeXPK is inhibited in vitro by ATP through an allosteric mode | inhibition [7]: its allosteric inhibition by ATP was validated based on steady-state kinetics

Bifidobacterium longum phosphoketolase (B. longum XPK) (enzyme)
stoichiometry N [8]: 8

B1: Synechococcus elongatus PCC7942 phosphoketolase (SeXPK) (enzyme)
chain: MTSTLQATDIATLSPNEQAAIDAWWRAANYLSVGQIYLRDNPLLQEPLRPEHIKQRLLGHWGSDPGLSFVYVHLNRLIRRLDLNLIYVTGPGHGAPALLANAWLEGTYSEVYPNCQQSTAGLQQFFKQFSFPGGIGSHCTPETPGSIHEGGELGYSLSHAFGAALDNPDLIVACVIGDGEAETGPLATSWHSNKFLNPAQDGAVLPILHLNGYKIANPTLLSRISHEELRSLFIGYGYEPFFVEGNDPAILHGVMASTLATCVQKIQAIQAAARSGESSDRPMWPMIVLRTPKGWTGPATIKGHVVEGSWRSHQVPMADVLTNPEHLQLLEDWLRSYRPEELFDASGAPVAELQAIAPIGDRRMSANPVTNGGLLRRALTLPDFRDQAVSVPAPGKSRADSTRPLGQFLREVIRHNPDNFRLFGPDETASNRLDAVYEVTSKVWLGDRIPEDEDGGHLSDRGRVMEILSEHTLEGWLEAYLLTGRHGFFATYEAFAHVIDSMVNQHAKWLDVSKREVDWRAPVSSLNILLSSTVWRQDHNGFSHQDPGFIDLVTNKSARVTRIYLPPDANCLLSVADHCLRSTDYINVIVADKQSHLQYLDAEAAARHCAKGIGIWDWASNDQGASPDVVIASCGDVVTLEALAATALLREHFPDLKIRFVNVVDLFRLQPDTEHPHGLSDRDFDSLFTVDKPIIFNFHGYPWLIHKLAYRRHNHNNLHVRGYKEVGNINTPLELAIRNQVDRFNLAIDVIDRVPHLRDRGAHVKEWLKDQIHDHIQYAYQEGIDRPEINQWQWPF
notes: phosphoketolase (XPK) of Synechococcus elongatus PCC7942, locus Synpcc7942_2080; Carries the coenzyme TPP/Mg2+; studied free and with 2 mM AMPPNP; Dodecamer of six dimers by cryo-EM; also called S. elongatus PCC7942 XPK; Synpcc7942_2080; source: E. coli DH5αDE3.1, purified (His-Tag resin, Q Sepharose, Superdex 200); copies: 12
stoichiometry N [9]: 12
